Experimental data from publication PMC10385968, “Enzymatic Characterization of a Novel HSL Family IV Esterase EstD04 from Pseudomonas sp. D01 in Mealworm Gut Microbiota” (Molecules, 2023).

Test system: T1, EstD04
T1 construct: C-terminal His6 tag (kept), pET-21a, E. coli BL21(DE3); catalytic triad Ser160/Glu253/His283; gene PCR-amplified with primers from P. nitroreducens homologue CEG18-11055 (homologue, not this protein)
Assay: p-nitrophenol release at […] nm, Lineweaver-Burk
Type: biochemical, Pseudomonas sp. D01
Conditions: pH 8.0, 40 °C, 50 mM potassium phosphate; 0.25-2 mM substrate

SMILES: CCCC(=O)Oc1ccc([N+](=O)[O-])cc1 [p-NPC4, p-nitrophenyl butyrate]
- Km: 488 ± 1 µM
